Experimental data published in patent US20230265151A1, “GIP/GLP1 CO-AGONIST COMPOUNDS” (priority 2020, published 2023).
Read-outs that look alike come from different tables or passages of the source. Where a SMILES comes first, the peptide text is derived from it. Side-chain parts run from the residue outwards. [ ]: non-standard residue; d: D form. The star is where a group is joined. αMePhe(2-F) = C[C@](N)(Cc1ccccc1F)C(=O)O; C14 diacid = O=C(O)CCCCCCCCCCCCC(=O)*; αMeY = C[C@](N)(Cc1ccc(O)cc1)C(=O)O; αMeL = CC(C)C[C@](C)(N)C(=O)O; Orn = NCCC[C@H](N)C(=O)O; AEEA = NCCOCCOCC(=O)O; Aib = CC(C)(N)C(=O)O

Tests used:
Assay type in all cases: cell-based
hGIPR = target: T1, hGIPR (Homo sapiens, UniProt P48546); assay: Functional cAMP formation (HTRF) in HEK-293 clonal cells expressing hGIPR, 0.1% bovine casein, without or with 1.0% human serum albumin; conditions: for EC50: geometric mean, read-out: hGIPR EC50, nM (SEM, n); for Emax: read-out: hGIPR Emax, % ± SEM
T1 construct: expressed in transfected cells
T1 sequence (P48546 22-466): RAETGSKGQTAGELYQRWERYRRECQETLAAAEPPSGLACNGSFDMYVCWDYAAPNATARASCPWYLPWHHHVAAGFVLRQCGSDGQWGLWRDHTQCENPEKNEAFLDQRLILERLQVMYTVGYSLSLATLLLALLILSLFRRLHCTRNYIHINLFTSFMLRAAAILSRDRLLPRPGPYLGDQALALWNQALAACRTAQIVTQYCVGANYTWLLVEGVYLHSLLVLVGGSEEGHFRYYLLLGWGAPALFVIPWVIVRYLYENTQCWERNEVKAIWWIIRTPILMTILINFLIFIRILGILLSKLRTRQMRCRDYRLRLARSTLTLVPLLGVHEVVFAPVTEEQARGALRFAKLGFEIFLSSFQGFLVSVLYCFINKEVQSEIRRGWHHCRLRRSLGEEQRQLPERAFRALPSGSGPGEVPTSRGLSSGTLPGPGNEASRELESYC
Procedure, shortened: (§1)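 Cells were stimulated with peptide for 30 min at 37° C, then lysed in buffer carrying cAMP-d2 and anti-cAMP Eu3+-cryptate for a competitive HTRF read after at least 60 min at room temperature. The 665/620 nm ratio was converted to nM cAMP against a standard curve.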

hGCGR = target: T2, hGCGR (Homo sapiens, UniProt P47871); assay: Functional cAMP formation (HTRF) in HEK-293 clonal cells expressing hGCGR, 0.1% bovine casein, without or with 1.0% human serum albumin; conditions: read-out: hGCGR EC50, nM (SEM, n)
T2 construct: expressed in transfected cells
Procedure, shortened: as §1

hGLP-1R = hGLP-1R (Homo sapiens, UniProt P43220); assay: Functional cAMP formation (HTRF) in HEK-293 clonal cells expressing hGLP-1R, 0.1% bovine casein, without or with 1.0% human serum albumin; parameters: expressed in transfected cells; conditions: for EC50: read-out: hGLP-1R EC50, nM (SEM, n); for Emax: read-out: hGLP-1R Emax, % ± SEM
Procedure, shortened: as §1

[1] = HEK293, 0.1% bovine casein and 1.0% human serum albumin, 37° C., percent of maximal response to GIP(1-42)NH2
[2] = 0.1% bovine casein and 1.0% human serum albumin, 37° C., geometric mean
[3] = cAMP, incubated at 37° C., 0.1% bovine casein (no human serum albumin), geometric mean
[4] = HEK293, cAMP, 37° C., 0.1% bovine casein and 1.0% human serum albumin, percent of maximal response to GIP(1-42)NH2
[5] = cAMP, 37° C., 0.1% bovine casein (no human serum albumin)
[6] = cAMP, 37° C., 0.1% bovine casein (no human serum albumin), geometric mean
[7] = cAMP, 37° C., 0.1% bovine casein and 1.0% human serum albumin, geometric mean (SEM, n)
[8] = HEK293, cAMP, 37° C., 0.1% bovine casein, percent of maximal response to GLP-1(7-36)NH2, arithmetic mean

T2 sequence (P47871 26-477): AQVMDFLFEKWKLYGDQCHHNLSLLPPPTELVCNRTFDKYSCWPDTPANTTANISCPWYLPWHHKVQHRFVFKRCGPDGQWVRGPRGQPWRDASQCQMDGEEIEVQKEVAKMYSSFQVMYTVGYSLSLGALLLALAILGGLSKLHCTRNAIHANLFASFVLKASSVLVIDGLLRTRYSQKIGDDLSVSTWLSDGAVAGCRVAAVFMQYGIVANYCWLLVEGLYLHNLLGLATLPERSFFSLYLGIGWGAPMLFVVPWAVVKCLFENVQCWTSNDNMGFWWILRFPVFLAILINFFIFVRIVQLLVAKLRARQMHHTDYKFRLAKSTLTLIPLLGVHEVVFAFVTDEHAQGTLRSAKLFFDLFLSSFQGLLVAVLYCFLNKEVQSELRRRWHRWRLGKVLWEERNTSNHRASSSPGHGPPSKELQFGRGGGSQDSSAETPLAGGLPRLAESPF
hGLP-1R, sequence (P43220 24-463): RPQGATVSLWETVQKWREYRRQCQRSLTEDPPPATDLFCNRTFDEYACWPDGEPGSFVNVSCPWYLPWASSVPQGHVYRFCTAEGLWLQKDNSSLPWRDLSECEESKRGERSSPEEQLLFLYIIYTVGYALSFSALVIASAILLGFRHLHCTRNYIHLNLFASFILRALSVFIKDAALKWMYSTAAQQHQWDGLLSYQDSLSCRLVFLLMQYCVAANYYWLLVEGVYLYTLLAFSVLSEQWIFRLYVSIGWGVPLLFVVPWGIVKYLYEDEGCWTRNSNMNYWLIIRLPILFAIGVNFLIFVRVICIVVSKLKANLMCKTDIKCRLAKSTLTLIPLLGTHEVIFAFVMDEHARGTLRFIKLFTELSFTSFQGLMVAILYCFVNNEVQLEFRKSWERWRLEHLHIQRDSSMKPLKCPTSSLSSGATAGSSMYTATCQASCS

## CC[C@H](C)[C@H](NC(=O)[C@H](CCCN)NC(=O)[C@H](CC(=O)O)NC(=O)[C@H](CC(C)C)NC(=O)[C@](C)(CC(C)C)NC(=O)[C@@H](NC(=O)C(C)(C)NC(=O)[C@H](Cc1ccc(O)cc1)NC(=O)[C@H](CC(=O)O)NC(=O)[C@H](CO)NC(=O)[C@@H](NC(=O)[C@](C)(Cc1ccccc1F)NC(=O)[C@@H](NC(=O)CNC(=O)[C@H](CCC(=O)O)NC(=O)C(C)(C)NC(=O)[C@@H](N)Cc1ccc(O)cc1)[C@@H](C)O)[C@@H](C)O)[C@@H](C)CC)C(=O)N[C@@H](C)C(=O)N[C@@H](CCC(N)=O)C(=O)NC(C)(C)C(=O)N[C@@H](CCC(=O)O)C(=O)N[C@@H](Cc1ccccc1)C(=O)N[C@H](C(=O)N[C@@H](CCCCNC(=O)COCCOCCNC(=O)COCCOCCNC(=O)CC[C@H](NC(=O)CCCCCCCCCCCCC(=O)O)C(=O)O)C(=O)N[C@@](C)(Cc1ccc(O)cc1)C(=O)N[C@@H](CC(C)C)C(=O)N[C@H](C(=O)N[C@@H](CCCCNC(=O)COCCOCCNC(=O)COCCOCCNC(=O)CC[C@H](NC(=O)CCCCCCCCCCCCC(=O)O)C(=O)O)C(=O)NCC(=O)NCC(=O)N1CCC[C@H]1C(=O)N[C@@H](CO)C(=O)N[C@@H](CO)C(=O)NCC(=O)N[C@@H](C)C(=O)N1CCC[C@H]1C(=O)N1CCC[C@H]1C(=O)N1CCC[C@H]1C(=O)N[C@@H](CO)C(N)=O)[C@@H](C)CC)[C@@H](C)CC [Example 233]
hGIPR; 0.1% bovine casein and 1.0% human serum albumin, 37° C.
  EC50: 6.08 nM
hGIPR; [1]
  Emax: 91.4%
hGIPR; HEK293, percent of maximal response to GIP(1-42)NH2, 37° C., 0.1% bovine casein, arithmetic mean
  Emax: 105%
hGIPR; cAMP, incubated at 37° C., 0.1% bovine casein (no human serum albumin)
  EC50: 0.0269 nM
hGCGR; [2]
  EC50: > 9950 nM
hGCGR; [3]
  EC50: > 9950 nM
hGLP-1R; [2]
  EC50: 56.7 nM
hGLP-1R; HEK293, 0.1% bovine casein and 1.0% human serum albumin, 37° C., percent of maximal response to GLP-1(7-36)NH2
  Emax: 116%
hGLP-1R; HEK293, percent of maximal response to GLP-1(7-36)NH2, 37° C., 0.1% bovine casein, arithmetic mean
  Emax: 111%
hGLP-1R; [3]
  EC50: 0.604 nM

## CC[C@H](C)[C@H](NC(=O)[C@H](CC(C)C)NC(=O)[C@](C)(Cc1ccc(O)cc1)NC(=O)[C@@H](CCC(=O)O)NC(=O)[C@@H](NC(=O)[C@H](Cc1ccccc1)NC(=O)[C@H](CCCCNC(=O)COCCOCCNC(=O)COCCOCCNC(=O)CCCCCCCCCCCCC(=O)O)NC(=O)C(C)(C)NC(=O)[C@H](CCC(N)=O)NC(=O)[C@H](C)NC(=O)[C@H](CCCCNC(=O)COCCOCCNC(=O)COCCOCCNC(=O)CCCCCCCCCCCCC(=O)O)NC(=O)[C@H](CCCN)NC(=O)[C@H](CC(=O)O)NC(=O)[C@H](CC(C)C)NC(=O)[C@](C)(CC(C)C)NC(=O)[C@@H](NC(=O)C(C)(C)NC(=O)[C@H](Cc1ccncc1)NC(=O)[C@H](CC(=O)O)NC(=O)[C@H](CO)NC(=O)[C@@H](NC(=O)[C@](C)(Cc1ccccc1F)NC(=O)[C@@H](NC(=O)CNC(=O)[C@H](CCC(=O)O)NC(=O)C(C)(C)NC(=O)[C@@H](N)Cc1ccc(O)cc1)[C@@H](C)O)[C@@H](C)O)[C@@H](C)CC)[C@@H](C)CC)C(=O)N[C@@H](CCC(=O)O)C(=O)NCC(=O)NCC(=O)N1CCC[C@H]1C(=O)N[C@@H](CO)C(=O)N[C@@H](CO)C(=O)NCC(=O)N[C@@H](C)C(=O)N1CCC[C@H]1C(=O)N1CCC[C@H]1C(=O)N1CCC[C@H]1C(=O)N[C@@H](CO)C(N)=O [Example 384]
hGIPR; [4]
  Emax: 83.5%
hGIPR; HEK293, cAMP, 37° C., 0.1% bovine casein, percent of maximal response to GIP(1-42)NH2, arithmetic mean
  Emax: 94.5%
hGIPR; [5]
  EC50: 0.0124 nM
hGCGR; [6]
  EC50: > 9950 nM
hGCGR; [7]
  EC50: > 9950 nM
hGLP-1R; [8]
  Emax: 98.2%
hGLP-1R; [6]
  EC50: 0.308 nM

## CC[C@H](C)[C@H](NC(=O)[C@H](CC(C)C)NC(=O)[C@](C)(Cc1ccc(O)cc1)NC(=O)[C@@H](CCC(=O)O)NC(=O)[C@@H](NC(=O)[C@H](Cc1ccccc1)NC(=O)[C@H](CCC(=O)O)NC(=O)C(C)(C)NC(=O)[C@H](CCC(N)=O)NC(=O)[C@H](C)NC(=O)[C@H](CCCCNC(=O)COCCOCCNC(=O)COCCOCCNC(=O)CCCCCCCCCCCCC(=O)O)NC(=O)[C@H](CCCN)NC(=O)[C@H](CC(=O)O)NC(=O)[C@H](CC(C)C)NC(=O)[C@](C)(CC(C)C)NC(=O)[C@@H](NC(=O)[C@H](CO)NC(=O)[C@H](Cc1ccc(OC)cc1)NC(=O)[C@H](CC(=O)O)NC(=O)[C@H](CO)NC(=O)[C@@H](NC(=O)[C@](C)(Cc1ccccc1F)NC(=O)[C@@H](NC(=O)CNC(=O)[C@H](CCC(=O)O)NC(=O)C(C)(C)NC(=O)[C@@H](N)Cc1ccc(O)cc1)[C@@H](C)O)[C@@H](C)O)[C@@H](C)CC)[C@@H](C)CC)C(=O)N[C@@H](CCC(=O)O)C(=O)NCC(=O)NCC(=O)N1CCC[C@H]1C(=O)N[C@@H](CO)C(=O)N[C@@H](CO)C(=O)NCC(=O)N[C@@H](C)C(=O)N1CCC[C@H]1C(=O)N1CCC[C@H]1C(=O)N1CCC[C@H]1C(=O)N[C@@H](CO)C(=O)N[C@@H](CCCCNC(=O)COCCOCCNC(=O)COCCOCCNC(=O)CCCCCCCCCCCCC(=O)O)C(N)=O [Example 267] (H-Y[Aib]EGT[αMePhe(2-F)]TSDY(Me)SI[αMeL]LD[Orn]K([AEEA-AEEA-C14 diacid])AQ[Aib]EFI[dE][αMeY]LIEGGPSSGAPPPSK([AEEA-AEEA-C14 diacid])-NH2)
hGIPR; [1]
  Emax: 88.1%
hGIPR; [5]
  EC50: 0.0162 nM
hGCGR; [2]
  EC50: > 9950 nM
hGCGR; [6]
  EC50: > 9950 nM
hGLP-1R; [6]
  EC50: 0.271 nM

## CCCCCCCCCCCC(=O)N[C@@H](CCC(=O)NCCOCCOCC(=O)NCCOCCOCC(=O)NCCCC[C@H](NC(=O)[C@H](CCCN)NC(=O)[C@H](CC(=O)O)NC(=O)[C@H](CC(C)C)NC(=O)[C@](C)(CC(C)C)NC(=O)[C@@H](NC(=O)C(C)(C)NC(=O)[C@H](CCCCNC(=O)COCCOCCNC(=O)COCCOCCNC(=O)CC[C@H](NC(=O)CCCCCCCCCCC)C(=O)O)NC(=O)[C@H](CC(=O)O)NC(=O)[C@H](CO)NC(=O)[C@@H](NC(=O)[C@](C)(Cc1ccccc1F)NC(=O)[C@@H](NC(=O)CNC(=O)[C@H](CCC(=O)O)NC(=O)C(C)(C)NC(=O)[C@@H](N)Cc1ccc(O)cc1)[C@@H](C)O)[C@@H](C)O)[C@@H](C)CC)C(=O)N[C@@H](C)C(=O)N[C@@H](CCC(N)=O)C(=O)NC(C)(C)C(=O)N[C@@H](CCC(=O)O)C(=O)N[C@@](C)(Cc1ccccc1)C(=O)N[C@H](C(=O)N[C@H](CCC(=O)O)C(=O)N[C@@](C)(Cc1ccc(O)cc1)C(=O)N[C@@H](CC(C)C)C(=O)N[C@H](C(=O)N[C@@H](CCC(=O)O)C(=O)NCC(=O)NCC(=O)N1CCC[C@H]1C(=O)N[C@@H](CO)C(=O)N[C@@H](CO)C(=O)NCC(=O)N[C@@H](C)C(=O)N1CCC[C@H]1C(=O)N1CCC[C@H]1C(=O)N1CCC[C@H]1C(=O)N[C@@H](CO)C(N)=O)[C@@H](C)CC)[C@@H](C)CC)C(=O)O [Example 429]
hGIPR; [4]
  Emax: 93.3%
hGIPR; [5]
  EC50: 0.00799 nM
hGCGR; [6]
  EC50: > 9950 nM
hGCGR; [7]
  EC50: > 9950 nM
hGLP-1R; [8]
  Emax: 116%
hGLP-1R; [6]
  EC50: 0.116 nM
hGLP-1R; [7]
  EC50: 17.3 nM
